From patent US20020088029A1, “Plant transformation methods” (priority 1998, published 2002)

Legend:
cell line HE/89 = experiment: DNA fragmentation (DNA ladders) in maize cells inoculated with Agrobacterium; assay type: cell-based, Zea mays L.; settings: HE/89 cells inoculated with Agrobacterium, agent added
Protocol: In order to determine the mechanism of cell death induced by Agrobacterium in maize tissues, genomic DNA is extracted from plant suspension cells harvested 24 or 48 hours after inoculation with Agrobacterium. Exposure to Agrobacterium causes DNA fragmentation in both maize lines, with a pattern characteristic of internucleosomal fragmentation, which is considered an early hallmark of programmed cell death. […] Furthermore, maize cells undergoing programmed cell death could not induce cell death of fresh maize embryogenic tissues.
Further evidence for Agrobacterium inducing DNA fragmentation is obtained by investigating the sensitivity of the process to Zn^2+ and Ca^2+. […] These characteristics are fully consistent with the effect of these divalent cations on the endogenous endonucleases responsible for DNA cleavage during apoptosis in animal system. The intensity of the ladder also is decreased by addition of cycloheximide, evidence that the process requires de novo gene expression. […] Fragmentation of DNA during apoptosis is also detected in situ by reagents that react with the exposed hydroxyls on the nucleosome units. 12 day old maize embryos from a proprietary elite line of Lancaster parentage are inoculated with LBA4404 and plated on DG4 medium supplemented with chloramben. Koziel, M.G., & al. 1993. Bio/Technology 11: 194-200. Apoptotic cells are detected by in situ staining with TACS-1 kit (Trevigen), which involves end labeling the DNA fragments by the klenow enzyme using dNTP conjugated to a detectable marker, giving a dark insoluble precipitate indicative of genomic fragmentation. Cullivier, O., Pirianov, G., Kleuser, B., Vanek, P.G., Coso, O.A., Gutking, J.S. and Spiegel, S. (1996) Nature 381, 800-803. Embryos are soaked in 3.7% formadehyde solution and processed as described by the manufacturer. To detect genomic DNA cleavage in situ, fixed embryos are treated with the TACS-1 kit. Fixed cross-sections are first treated with proteinase K for 5 min at room temperature and then dipped for 5 min into 2% hydrogen peroxide to remove endogenous peroxidase. […]

maize embryos = experiment: Inoculation of maize embryos with LBA4404 with or without silver nitrate, callus initiation; assay type: cell-based
Protocol: Inhibition of Agrobacterium-induced programmed cell death Preparation of tissues for inoculation with Agrobacterium: Immature embryos (1.2 to 2.2 mm in length) are aseptically excised 14-15 days after pollination from surface-sterilized, greenhouse-grown ears and plated scutellum up on callus initiation medium, 2DG4+5 mg/l chloramben (2DG4-5Chl).
Immature embryos are sterilized as described above and plated on callus initiation medium (2DG4-5Chl) and cultured therein for 1 to 7 days. The resulting tissue is used as samples for inoculation.
Agrobacterium is grown for 3 days on YP medium (5 g/l yeast extract, 10 g/l peptone, 5 g/l NaCl, 15 g/l agar, pH 6.8) supplemented with 50 mg/l spectinomycin and 10 mg/l tetracycline. Bacteria are collected with a loop and suspended in N6 liquid medium at a density ranging from 10^9 to 5 10^9 cells/ml. Agrobacterium cells can also be collected from an overnight culture in YP medium and resuspended in N6 liquid medium.
Maize tissues prepared as described above are inoculated with Agrobacterium. […] Tissues are also inoculated with a 5 μl drop 10^9 to 5×10^9 cells/ml of an Agrobacterium suspension placed on the top of the tissue.

maize type I callus = experiment: Inoculation of maize type I callus with or without silver nitrate, survival of tissues; assay type: cell-based; settings: ½ month old type I callus, co-inoculation 2DG4 + AgNO3, transfer 2DG4 + AgNO3 + Cef, 2 weeks
tobacco leaf discs = settings: silver nitrate present during co-cultivation; LBA4404(GIGUP) 10^9 cells/ml
[1] = tested on: HE/89 maize friable embryogenic callus
Protocol: The following experiments employ maize inbred lines (Zea mays L.) HE/89 and a line here designated as Elite 1. […] Suspension culture of Elite 1 is initiated from friable embryogenic callus selected from immature embryos. The HE/89 line is grown in a modified liquid N6 medium amended with 500 mg/l Bacto tryptone, 30 g/l sucrose and 0.5 mg/l 2,4-dichlorophenoxy acetic acid (2,4-D) (N6M). The Elite 1 line is grown in N6 liquid medium (Chu et al., 1975) supplemented with 30 g/l sucrose and 2 mg/l 2,4-D (2N63S). The Nicotiana tabacum cell line NT-1 grown in Murashige and Skoog medium supplemented with 2 mg/l of 2,4-D and sucrose (30 g/l) (MS3S) is used as an Agrobacterium-susceptible control. Suspension cultures are maintained in liquid medium on a rotary shaker (120 rpm) and are subcultured every 7 days.
Bacteria are grown in YP medium (5 g/L yeast extract, 10 g/l peptone, 5 g/l NaCl, pH 6.8) for 24 hr at 28° C. […]
Friable embryogenic callus of HE/89 maize and of a proprietary elite inbred maize maintained in liquid medium are incubated with Agrobacterium for 10 min, 1 hr, 24 hr or 48 hrs prior to transfer to cefotaxim-containing medium. […] The presence or absence of necrosis is scored 2, 4 and 7 days after inoculation and the relative intensity of necrosis is expressed as follow: +, rare formation of necrosis; ++, weak necrosis; +++, strong necrosis; ++++, very strong necrosis.

For `[Ca+2]` [Ca^2+], the “intensity of DNA ladders (genomic fragmentation)” value (“intensity of DNA ladders” below) (cell line HE/89) was “increased the intensity of DNA ladders”.
`[Zn+2]` [Zn^2+] was tested, and the “intensity of DNA ladders” value (cell line HE/89) was “markedly reduced genomic fragmentation”.
For `O=[N+]([O-])[O-].[Ag+]` [AgNO3, silver nitrate], the “embryos able to produce embryogenic calli” value (maize embryos; embryos plated on medium containing silver nitrate after Agrobacterium inoculation) was “About 50%”, the “Score (callus initiation)” value (maize embryos; no pretreatment, co-inoculation 2DG4, transfer 2DG4 + AgNO3 + Cef, LBA4404 (GIGUP) 10^9 cells/ml, two weeks after inoculation) was 30% and the “Score (survival of tissues)” value (maize type I callus; pretreatment 2DG4 + AgNO3) was 95%. The “Score (survival of tissues)” value (maize type I callus; pretreatment 2DG4) was 75% and the “GUS activity in tobacco leaves (Agrobacterium virulence)” value (tobacco leaf discs) was “No significant decrease”.
For `C[C@@H]1C[C@@H]([C@H](O)CC2CC(=O)NC(=O)C2)C(=O)[C@@H](C)C1` [cycloheximide], the “intensity of DNA ladders” value (cell line HE/89) was “decreased”.
With `CO/N=C(\C(=O)N[C@@H]1C(=O)N2C(C(=O)O)=C(COC(C)=O)CS[C@H]12)c1csc(N)n1` [cefotaxime] the “necrosis of maize tissue” value [1] was “does not cause the maize tissue to become necrotic”.
